According to ChEMBL document CHEMBL4507273 (2021):

How the values were obtained:
[1] = molecular target: Protein-tyrosine kinase 6 (Homo sapiens) (UniProt Q13882); settings: Compound concentration 1000.0 nM
[2] = molecular target: Epidermal growth factor receptor (Homo sapiens, UniProt P00533); settings: Compound concentration 1000.0 nM
[3] = tested on: Epidermal growth factor receptor (Homo sapiens), P00533 [UNDEFINED MUTATION]; settings: Compound concentration 1000.0 nM
[4] = tested on: Epidermal growth factor receptor (Homo sapiens), P00533 [L861Q]; settings: Compound concentration 1000.0 nM
[5] = tested on: Epidermal growth factor receptor (Homo sapiens), P00533 [T790M]; settings: Compound concentration 1000.0 nM
[6] = molecular target: Interleukin-1 receptor-associated kinase 1 (Homo sapiens) (UniProt P51617); settings: Compound concentration 1000.0 nM
[7] = molecular target: Tyrosine-protein kinase JAK1 (Homo sapiens) (UniProt P23458); settings: Compound concentration 1000.0 nM
[8] = molecular target: Mast/stem cell growth factor receptor Kit (Homo sapiens) (UniProt P10721); settings: Compound concentration 1000.0 nM
[9] = molecular target: Dual specificity mitogen-activated protein kinase kinase 1 (Homo sapiens) (UniProt Q02750); settings: Compound concentration 1000.0 nM
[10] = molecular target: Dual specificity mitogen-activated protein kinase kinase 3 (Homo sapiens) (UniProt P46734); settings: Compound concentration 1000.0 nM
[11] = molecular target: Tyrosine-protein kinase Mer (Homo sapiens) (UniProt Q12866); settings: Compound concentration 1000.0 nM
[12] = molecular target: Macrophage-stimulating protein receptor (Homo sapiens) (UniProt Q04912); settings: Compound concentration 1000.0 nM
[13] = molecular target: Serine/threonine-protein kinase PAK 3 (Homo sapiens) (UniProt O75914); settings: Compound concentration 1000.0 nM
[14] = molecular target: Cyclin-dependent kinase 18 (Homo sapiens) (UniProt Q07002); settings: Compound concentration 1000.0 nM
[15] = molecular target: 3-phosphoinositide-dependent protein kinase 1 (Homo sapiens) (UniProt O15530); settings: Compound concentration 1000.0 nM
[16] = molecular target: Calcium-dependent protein kinase 1 (Plasmodium falciparum) (UniProt P62344); settings: Compound concentration 1000.0 nM
[17] = tested on: Phosphatidylinositol 4,5-bisphosphate 3-kinase catalytic subunit alpha isoform (Homo sapiens), P42336 [E545K]; settings: Compound concentration 1000.0 nM
[18] = tested on: Phosphatidylinositol 4,5-bisphosphate 3-kinase catalytic subunit alpha isoform (Homo sapiens), P42336 [Q546K]; settings: Compound concentration 1000.0 nM
[19] = molecular target: Phosphatidylinositol 4-phosphate 5-kinase type-1 alpha (Homo sapiens) (UniProt Q99755); settings: Compound concentration 1000.0 nM
[20] = molecular target: cAMP-dependent protein kinase catalytic subunit beta (Homo sapiens) (UniProt P22694); settings: Compound concentration 1000.0 nM
[21] = molecular target: Serine/threonine-protein kinase D2 (Homo sapiens) (UniProt Q9BZL6); settings: Compound concentration 1000.0 nM
[22] = molecular target: SRSF protein kinase 3 (Homo sapiens) (UniProt Q9UPE1); settings: Compound concentration 1000.0 nM
[23] = molecular target: Serine/threonine-protein kinase TAO3 (Homo sapiens) (UniProt Q9H2K8); settings: Compound concentration 1000.0 nM
[24] = molecular target: Testis-specific serine/threonine-protein kinase 3 (Homo sapiens) (UniProt Q96PN8); settings: Compound concentration 1000.0 nM
[25] = molecular target: Serine/threonine-protein kinase ULK3 (Homo sapiens) (UniProt Q6PHR2); settings: Compound concentration 1000.0 nM
[26] = molecular target: Serine/threonine-protein kinase VRK2 (Homo sapiens) (UniProt Q86Y07); settings: Compound concentration 1000.0 nM
[27] = molecular target: Serine/threonine-protein kinase WNK1 (Homo sapiens) (UniProt Q9H4A3); settings: Compound concentration 1000.0 nM
[28] = molecular target: T1, 5-hydroxytryptamine receptor 1A (Homo sapiens) (UniProt P08908); settings: Compound concentration 10.0 uM
T1 sequence (whole entry): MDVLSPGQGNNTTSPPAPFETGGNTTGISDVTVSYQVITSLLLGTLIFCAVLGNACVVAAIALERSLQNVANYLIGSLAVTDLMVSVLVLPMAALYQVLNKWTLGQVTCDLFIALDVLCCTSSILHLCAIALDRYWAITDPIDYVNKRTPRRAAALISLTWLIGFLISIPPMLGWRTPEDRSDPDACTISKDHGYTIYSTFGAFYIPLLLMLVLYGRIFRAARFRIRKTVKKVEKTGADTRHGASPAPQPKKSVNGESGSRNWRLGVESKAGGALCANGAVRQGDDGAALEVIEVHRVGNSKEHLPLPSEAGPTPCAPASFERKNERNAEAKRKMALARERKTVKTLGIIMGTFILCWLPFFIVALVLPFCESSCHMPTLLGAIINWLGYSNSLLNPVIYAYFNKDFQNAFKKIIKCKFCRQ

[29] = molecular target: Sodium-dependent noradrenaline transporter (Homo sapiens, UniProt P23975); settings: Compound concentration 10.0 uM
[30] = molecular target: T2, Alpha-2C adrenergic receptor (Homo sapiens) (UniProt P18825); settings: Compound concentration 10.0 uM
T2 sequence (whole entry): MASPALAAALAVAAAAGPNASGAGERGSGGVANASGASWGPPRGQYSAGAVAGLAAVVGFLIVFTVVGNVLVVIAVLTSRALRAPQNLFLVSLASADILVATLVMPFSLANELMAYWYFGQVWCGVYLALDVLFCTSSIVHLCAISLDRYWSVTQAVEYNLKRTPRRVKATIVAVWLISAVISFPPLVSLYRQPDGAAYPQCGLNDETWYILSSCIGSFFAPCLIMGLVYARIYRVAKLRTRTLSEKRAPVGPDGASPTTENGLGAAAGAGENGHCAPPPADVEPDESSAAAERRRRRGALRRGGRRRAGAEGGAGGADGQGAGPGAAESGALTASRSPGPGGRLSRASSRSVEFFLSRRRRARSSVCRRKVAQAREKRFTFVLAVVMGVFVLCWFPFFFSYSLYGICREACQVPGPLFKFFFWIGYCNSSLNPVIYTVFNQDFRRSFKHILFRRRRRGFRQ

Sequence of Calcium-dependent protein kinase 1 (Plasmodium falciparum) (P62344 2-524 limits assumed): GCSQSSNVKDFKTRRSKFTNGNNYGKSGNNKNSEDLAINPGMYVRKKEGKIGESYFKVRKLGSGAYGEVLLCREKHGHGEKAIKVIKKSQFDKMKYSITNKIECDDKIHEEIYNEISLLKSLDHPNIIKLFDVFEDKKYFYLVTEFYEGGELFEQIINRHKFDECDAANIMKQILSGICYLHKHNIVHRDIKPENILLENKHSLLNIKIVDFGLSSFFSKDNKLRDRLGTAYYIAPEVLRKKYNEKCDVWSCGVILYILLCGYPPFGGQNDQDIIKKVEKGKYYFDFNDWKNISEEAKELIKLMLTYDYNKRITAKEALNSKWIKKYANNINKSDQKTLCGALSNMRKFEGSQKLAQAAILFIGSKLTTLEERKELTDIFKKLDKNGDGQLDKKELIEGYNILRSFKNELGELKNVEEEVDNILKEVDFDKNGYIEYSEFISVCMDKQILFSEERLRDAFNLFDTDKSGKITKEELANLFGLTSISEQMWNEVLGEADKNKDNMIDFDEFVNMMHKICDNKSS
Sequence of Dual specificity mitogen-activated protein kinase kinase 3 (Homo sapiens) (P46734 whole entry): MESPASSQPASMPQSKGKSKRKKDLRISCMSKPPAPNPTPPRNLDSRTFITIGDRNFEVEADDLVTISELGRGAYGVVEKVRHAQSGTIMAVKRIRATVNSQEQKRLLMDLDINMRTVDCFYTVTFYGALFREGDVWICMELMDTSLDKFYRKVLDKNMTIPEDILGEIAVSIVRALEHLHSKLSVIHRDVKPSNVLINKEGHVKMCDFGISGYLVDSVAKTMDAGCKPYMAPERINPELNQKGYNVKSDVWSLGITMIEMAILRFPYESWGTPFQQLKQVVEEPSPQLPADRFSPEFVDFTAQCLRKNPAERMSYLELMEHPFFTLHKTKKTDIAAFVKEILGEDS
Sequence of Interleukin-1 receptor-associated kinase 1 (Homo sapiens) (P51617 whole entry, looked up): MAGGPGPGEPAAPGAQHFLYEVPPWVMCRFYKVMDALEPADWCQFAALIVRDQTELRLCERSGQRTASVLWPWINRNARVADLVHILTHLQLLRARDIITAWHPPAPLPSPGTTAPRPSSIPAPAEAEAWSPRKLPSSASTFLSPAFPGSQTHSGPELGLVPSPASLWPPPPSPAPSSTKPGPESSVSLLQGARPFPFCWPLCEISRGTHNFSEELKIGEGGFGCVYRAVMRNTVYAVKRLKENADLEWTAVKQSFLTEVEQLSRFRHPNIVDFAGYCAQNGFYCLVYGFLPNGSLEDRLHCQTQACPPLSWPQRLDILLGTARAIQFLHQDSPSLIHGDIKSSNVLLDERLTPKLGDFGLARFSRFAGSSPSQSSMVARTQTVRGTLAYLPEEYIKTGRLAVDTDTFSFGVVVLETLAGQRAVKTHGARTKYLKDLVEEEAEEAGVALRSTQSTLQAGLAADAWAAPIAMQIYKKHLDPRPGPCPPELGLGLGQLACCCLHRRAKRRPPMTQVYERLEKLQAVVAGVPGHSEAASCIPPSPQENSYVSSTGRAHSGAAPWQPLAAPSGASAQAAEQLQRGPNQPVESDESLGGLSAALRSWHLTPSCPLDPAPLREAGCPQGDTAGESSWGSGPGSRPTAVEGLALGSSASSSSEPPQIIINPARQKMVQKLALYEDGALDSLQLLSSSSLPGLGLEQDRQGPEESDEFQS
Sequence of Phosphatidylinositol 4-phosphate 5-kinase type-1 alpha (Homo sapiens) (Q99755 whole entry): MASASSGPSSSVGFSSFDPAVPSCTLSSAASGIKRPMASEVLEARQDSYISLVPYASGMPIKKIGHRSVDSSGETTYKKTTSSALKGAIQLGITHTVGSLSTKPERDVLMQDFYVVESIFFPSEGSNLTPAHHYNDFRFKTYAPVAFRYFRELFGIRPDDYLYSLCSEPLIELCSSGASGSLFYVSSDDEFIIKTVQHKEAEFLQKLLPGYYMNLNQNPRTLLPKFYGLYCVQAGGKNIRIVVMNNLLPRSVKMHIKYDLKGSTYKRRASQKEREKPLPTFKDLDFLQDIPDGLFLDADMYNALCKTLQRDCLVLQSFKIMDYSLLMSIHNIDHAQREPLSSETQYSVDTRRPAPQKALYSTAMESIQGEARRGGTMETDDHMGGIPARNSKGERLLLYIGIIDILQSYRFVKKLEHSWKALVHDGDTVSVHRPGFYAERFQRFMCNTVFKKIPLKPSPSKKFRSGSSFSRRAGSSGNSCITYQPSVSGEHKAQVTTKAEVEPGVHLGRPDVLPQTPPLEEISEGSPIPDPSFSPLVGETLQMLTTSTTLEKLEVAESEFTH
Sequence of Serine/threonine-protein kinase ULK3 (Homo sapiens) (Q6PHR2 whole entry): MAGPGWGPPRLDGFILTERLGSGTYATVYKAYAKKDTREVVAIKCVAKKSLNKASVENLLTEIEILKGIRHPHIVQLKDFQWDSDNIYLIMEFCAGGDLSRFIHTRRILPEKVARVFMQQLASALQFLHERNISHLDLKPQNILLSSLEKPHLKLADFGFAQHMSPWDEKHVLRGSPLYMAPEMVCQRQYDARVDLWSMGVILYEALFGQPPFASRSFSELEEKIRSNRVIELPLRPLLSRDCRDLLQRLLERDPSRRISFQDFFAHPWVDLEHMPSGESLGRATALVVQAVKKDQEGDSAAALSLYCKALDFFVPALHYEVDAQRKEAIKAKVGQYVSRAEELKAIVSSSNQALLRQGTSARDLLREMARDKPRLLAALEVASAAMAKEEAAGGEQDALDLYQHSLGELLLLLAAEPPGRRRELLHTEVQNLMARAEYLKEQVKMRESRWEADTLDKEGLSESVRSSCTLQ
Sequence of 3-phosphoinositide-dependent protein kinase 1 (Homo sapiens) (O15530 whole entry): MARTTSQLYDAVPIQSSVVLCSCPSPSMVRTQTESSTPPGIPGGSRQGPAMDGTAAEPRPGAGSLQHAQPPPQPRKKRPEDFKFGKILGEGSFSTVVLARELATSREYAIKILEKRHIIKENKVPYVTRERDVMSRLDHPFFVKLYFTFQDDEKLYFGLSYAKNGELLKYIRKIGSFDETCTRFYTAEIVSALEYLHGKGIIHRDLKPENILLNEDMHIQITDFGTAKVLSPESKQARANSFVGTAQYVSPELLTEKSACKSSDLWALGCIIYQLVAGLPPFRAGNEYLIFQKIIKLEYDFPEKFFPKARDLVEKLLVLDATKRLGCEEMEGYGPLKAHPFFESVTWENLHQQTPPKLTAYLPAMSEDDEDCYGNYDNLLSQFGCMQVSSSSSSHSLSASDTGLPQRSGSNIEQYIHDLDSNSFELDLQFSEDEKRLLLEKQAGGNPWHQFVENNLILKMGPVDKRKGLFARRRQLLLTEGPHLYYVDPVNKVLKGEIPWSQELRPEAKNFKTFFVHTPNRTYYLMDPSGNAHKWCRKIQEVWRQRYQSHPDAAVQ
Sequence of Tyrosine-protein kinase Mer (Homo sapiens) (Q12866 whole entry): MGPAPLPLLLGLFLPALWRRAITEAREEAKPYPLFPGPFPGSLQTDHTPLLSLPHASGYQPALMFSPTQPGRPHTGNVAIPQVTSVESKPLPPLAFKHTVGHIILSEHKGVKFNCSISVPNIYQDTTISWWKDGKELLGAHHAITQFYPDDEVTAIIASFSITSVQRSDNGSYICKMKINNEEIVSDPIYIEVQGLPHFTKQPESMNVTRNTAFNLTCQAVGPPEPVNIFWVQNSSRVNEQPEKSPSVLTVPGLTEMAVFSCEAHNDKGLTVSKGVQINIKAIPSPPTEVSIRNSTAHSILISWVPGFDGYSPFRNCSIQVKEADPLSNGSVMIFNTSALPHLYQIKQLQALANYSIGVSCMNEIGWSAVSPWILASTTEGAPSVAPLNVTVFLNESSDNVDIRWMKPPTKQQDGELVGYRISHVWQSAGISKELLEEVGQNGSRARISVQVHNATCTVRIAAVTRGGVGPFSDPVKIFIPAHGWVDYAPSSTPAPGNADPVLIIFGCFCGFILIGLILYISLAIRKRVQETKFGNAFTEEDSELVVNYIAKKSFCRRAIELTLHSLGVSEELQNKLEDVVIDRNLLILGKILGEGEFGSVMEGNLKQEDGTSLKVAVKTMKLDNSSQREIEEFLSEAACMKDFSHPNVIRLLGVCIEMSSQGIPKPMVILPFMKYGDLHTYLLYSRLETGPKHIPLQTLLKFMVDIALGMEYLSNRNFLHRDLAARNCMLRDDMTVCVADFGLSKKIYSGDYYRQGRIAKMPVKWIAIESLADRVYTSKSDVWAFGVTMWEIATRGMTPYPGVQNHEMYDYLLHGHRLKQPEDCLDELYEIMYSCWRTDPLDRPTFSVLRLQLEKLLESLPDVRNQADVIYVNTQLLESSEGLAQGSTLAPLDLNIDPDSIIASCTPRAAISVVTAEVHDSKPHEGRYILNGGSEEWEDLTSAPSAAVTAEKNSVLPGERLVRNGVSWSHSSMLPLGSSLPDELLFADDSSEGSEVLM
Sequence of Protein-tyrosine kinase 6 (Homo sapiens) (Q13882 whole entry, looked up): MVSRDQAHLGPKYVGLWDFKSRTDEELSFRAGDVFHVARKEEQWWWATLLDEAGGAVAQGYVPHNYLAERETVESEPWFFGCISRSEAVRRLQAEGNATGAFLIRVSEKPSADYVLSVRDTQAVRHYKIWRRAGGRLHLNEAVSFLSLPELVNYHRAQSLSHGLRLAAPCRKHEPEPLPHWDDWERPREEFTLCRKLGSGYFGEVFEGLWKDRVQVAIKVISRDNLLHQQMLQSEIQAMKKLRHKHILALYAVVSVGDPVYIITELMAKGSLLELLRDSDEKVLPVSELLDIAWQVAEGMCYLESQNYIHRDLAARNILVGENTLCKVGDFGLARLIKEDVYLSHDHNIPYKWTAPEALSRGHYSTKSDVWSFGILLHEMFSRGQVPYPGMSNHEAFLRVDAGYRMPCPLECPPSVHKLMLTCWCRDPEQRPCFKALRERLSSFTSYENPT
Sequence of Dual specificity mitogen-activated protein kinase kinase 1 (Homo sapiens) (Q02750 whole entry): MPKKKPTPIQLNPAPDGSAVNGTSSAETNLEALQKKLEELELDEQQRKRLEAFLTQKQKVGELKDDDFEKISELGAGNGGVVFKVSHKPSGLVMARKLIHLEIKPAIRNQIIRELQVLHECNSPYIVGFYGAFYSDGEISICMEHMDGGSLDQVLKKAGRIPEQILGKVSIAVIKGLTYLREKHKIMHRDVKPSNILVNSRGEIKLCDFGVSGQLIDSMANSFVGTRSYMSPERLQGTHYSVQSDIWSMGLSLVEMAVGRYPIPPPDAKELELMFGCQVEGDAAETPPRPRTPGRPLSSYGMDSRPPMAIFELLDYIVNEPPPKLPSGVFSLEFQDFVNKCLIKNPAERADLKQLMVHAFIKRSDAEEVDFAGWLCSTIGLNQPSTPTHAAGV

Compound: CNCc1ccccc1-c1csc([C@@H](C)Nc2nc(C)nc3cc(OC)c(OC)cc23)c1 [BAY-293]
- residual activity [1]: 100%
- residual activity [2]: 90%
- residual activity [3]: 100%
- residual activity [4]: 97%
- residual activity [5]: 68%
- residual activity [6]: 71%
- residual activity [7]: 73%
- residual activity [8]: 100%
- residual activity [9]: 86%
- residual activity [10]: 80%
- residual activity [11]: 61%
- residual activity [12]: 100%
- residual activity [13]: 86%
- residual activity [14]: 100%
- residual activity [15]: 92%
- residual activity [16]: 100%
- residual activity [17]: 78%
- residual activity [18]: 89%
- residual activity [19]: 75%
- residual activity [20]: 100%
- residual activity [21]: 100%
- residual activity [22]: 84%
- residual activity [23]: 83%
- residual activity [24]: 100%
- residual activity [25]: 78%
- residual activity [26]: 89%
- residual activity [27]: 88%
- inhibition [28]: 56.5%
- inhibition [29]: 84%
- inhibition [30]: 94.2%

Compound: CNCc1ccccc1-c1csc([C@H](C)Nc2nc(C)nc3cc(OC)c(OC)cc23)c1 [BAY-294]
- residual activity [1]: 100%
- residual activity [2]: 100%
- residual activity [3]: 89%
- residual activity [4]: 97%
- residual activity [5]: 76%
- residual activity [6]: 80%
- residual activity [7]: 68%
- residual activity [8]: 100%
- residual activity [9]: 100%
- residual activity [10]: 98%
- residual activity [11]: 72%
- residual activity [12]: 100%
- residual activity [13]: 87%
- residual activity [14]: 100%
- residual activity [15]: 100%
- residual activity [16]: 81%
- residual activity [17]: 75%
- residual activity [18]: 84%
- residual activity [19]: 92%
- residual activity [20]: 100%
- residual activity [21]: 99%
- residual activity [22]: 89%
- residual activity [23]: 75%
- residual activity [24]: 100%
- residual activity [25]: 88%
- residual activity [26]: 73%
- residual activity [27]: 100%
- inhibition [28]: 93.8%
- inhibition [29]: 69.3%
- inhibition [30]: 94.2%
